Results published in patent publication US9351974B2, “Substituted pteridinones for the treatment of cancer” (OSI Pharmaceuticals, LLC, priority 2011, dated 2016).

Molecular target: T1, His-tagged full-length RSK2 (RPS6KA3) (Homo sapiens, UniProt P51812)
T1 construct: His-tagged full-length RSK2 (RPS6KA3, Invitrogen PV3323); His; purchased Invitrogen PV3323
Experiment: RSK2 Omnia Assay for compound IC50 determination
Type: biochemical
Conditions: ATP 15 μM, n=2, read-out: Mean RSK2 Biochem IC50
In short: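 Continuous fluorescence assay (ex 360/em 485 nm) of SOX-peptide (Omnia ST Peptide 6, 5 μM) phosphorylation with ATP 15 μM (Km 16.3 μM). Enzyme was […], in pH 7.5 HEPES/MgCl2 buffer with 1% DMSO. IC50 came from 11-point threefold dilutions ([…]) by four-parameter fit of initial slopes, in duplicate; Ki by Cheng-Prusoff assuming competitive inhibition.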

T1 sequence (P51812 whole entry): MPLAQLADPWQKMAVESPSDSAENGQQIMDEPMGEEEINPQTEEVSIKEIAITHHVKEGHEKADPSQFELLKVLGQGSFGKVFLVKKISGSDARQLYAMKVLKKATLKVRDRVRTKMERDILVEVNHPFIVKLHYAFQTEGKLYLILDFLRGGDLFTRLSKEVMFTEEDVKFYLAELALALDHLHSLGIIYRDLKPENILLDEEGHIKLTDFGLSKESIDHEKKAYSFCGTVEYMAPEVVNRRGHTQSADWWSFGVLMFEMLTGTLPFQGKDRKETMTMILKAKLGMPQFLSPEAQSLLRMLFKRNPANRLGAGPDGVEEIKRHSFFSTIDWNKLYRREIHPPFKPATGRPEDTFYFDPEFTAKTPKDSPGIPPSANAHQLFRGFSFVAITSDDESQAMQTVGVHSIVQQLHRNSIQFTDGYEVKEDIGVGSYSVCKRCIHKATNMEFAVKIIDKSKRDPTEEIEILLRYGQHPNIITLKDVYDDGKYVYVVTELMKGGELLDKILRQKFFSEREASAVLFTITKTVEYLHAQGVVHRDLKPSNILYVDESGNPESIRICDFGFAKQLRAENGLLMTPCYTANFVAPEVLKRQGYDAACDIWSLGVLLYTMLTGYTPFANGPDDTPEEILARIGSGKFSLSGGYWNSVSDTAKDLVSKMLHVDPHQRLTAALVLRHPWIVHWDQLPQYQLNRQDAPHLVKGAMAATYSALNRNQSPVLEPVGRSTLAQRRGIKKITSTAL

Structure (SMILES)	IC50 [nM]
C[C@@H]1C(=O)N(c2cccc(C#N)c2)c2cnc(Nc3cc4cn[nH]c4cc3Cl)nc2N1C1CCCCC1 [compound 118, 3-[(7R)-2-[(6-chloro-1H-indazol-5-yl)amino]-8-cyclohexyl-7-methyl-6-oxo-7,8-dihydropteridin-5(6H)-yl]benzonitrile]	≤ 100
CO[C@H]1CC[C@@H](N2c3nc(Nc4cc(F)c5[nH]ncc5c4)ncc3N(c3cccnc3)C(=O)[C@H]2C)CC1 [compound 227, (7R)-2-[(7-fluoro-1H-indazol-5-yl)amino]-8-(cis-4-methoxycyclohexyl)-7-methyl-5-(pyridin-3-yl)-7,8-dihydropteridin-6(5H)-one]	≤ 100
COc1ccc(N2C(=O)[C@@H](C)N(C3CCCCC3)c3nc(Nc4ccc5[nH]c(=O)oc5c4)ncc32)cc1OC [compound 150, (7R)-8-cyclohexyl-5-(3,4-dimethoxyphenyl)-7-methyl-2-[(2-oxo-2,3-dihydro-1,3-benzoxazol-6-yl)amino]-7,8-dihydropteridin-6(5H)-one]	≤ 100
C[C@@H]1C(=O)N(c2ccccc2)c2cnc(Nc3ccc4[nH]ncc4c3)nc2N1CCN(C)C [Example 73, (7R)-8-[2-(dimethylamino)ethyl]-2-(1H-indazol-5-ylamino)-7-methyl-5-phenyl-7,8-dihydropteridin-6(5H)-one]	> 1000
CNC(=O)Cc1ccc(Nc2ncc3c(n2)N(CCC(C)C)C(C)C(=O)N3c2ccccc2)cc1 (centres unmarked) [Example 5, N-methyl-2-(4-{[7-methyl-8-(3-methylbutyl)-6-oxo-5-phenyl-5,6,7,8-tetrahydropteridin-2-yl]amino}phenyl)acetamide]	100 to 1000
C[C@@H]1C(=O)N(c2ccc(N3CCCC3)c(C#N)c2)c2cnc(Nc3cc(F)c4[nH]ncc4c3)nc2N1C1CCC(C)(C)CC1 [Example 212, 5-[(7R)-8-(4,4-dimethylcyclohexyl)-2-[(7-fluoro-1H-indazol-5-yl)amino]-7-methyl-6-oxo-7,8-dihydropteridin-5(6H)-yl]-2-(pyrrolidin-1-yl)benzonitrile]	≤ 100
C[C@@H]1C(=O)N(c2cccc(F)c2)c2cnc(Nc3cc(F)c4[nH]ncc4c3)nc2N1C1CCC(F)(F)CC1 [compound 263, (7R)-8-(4,4-difluorocyclohexyl)-2-[(7-fluoro-1H-indazol-5-yl)amino]-5-(3-fluorophenyl)-7-methyl-7,8-dihydropteridin-6(5H)-one]	≤ 100
COc1ccc(N2C(=O)[C@@H](C)N([C@H]3CC[C@H](OC)CC3)c3nc(Nc4cnc5[nH]ncc5c4)ncc32)cc1C#N [compound 234, 2-methoxy-5-[(7R)-8-(trans-4-methoxycyclohexyl)-7-methyl-6-oxo-2-(1H-pyrazolo[3,4-b]pyridin-5-ylamino)-7,8-dihydropteridin-5(6H)-yl]benzonitrile]	≤ 100
C[C@@H]1C(=O)N(c2cccnc2)c2cnc(Nc3cc(F)c4[nH]ncc4c3)nc2N1C1CCC(F)(F)CC1 [compound 264, (7R)-8-(4,4-difluorocyclohexyl)-2-[(7-fluoro-1H-indazol-5-yl)amino]-7-methyl-5-(pyridin-3-yl)-7,8-dihydropteridin-6(5H)-one]	≤ 100
C[C@@H]1C(=O)N(c2cccc(F)c2)c2cnc(Nc3cc(F)c4[nH]ncc4c3)nc2N1C1CCOCC1 [compound 189, (7R)-2-[(7-fluoro-1H-indazol-5-yl)amino]-5-(3-fluorophenyl)-7-methyl-8-(tetrahydro-2H-pyran-4-yl)-7,8-dihydropteridin-6(5H)-one]	≤ 100
COc1ccc(N2C(=O)[C@@H](C)N(CCC(C)C)c3nc(Nc4cc(F)c5[nH]ncc5c4)ncc32)cc1C#N [Example 91, 5-[(7R)-2-[(7-fluoro-1H-indazol-5-yl)amino]-7-methyl-8-(3-methylbutyl)-6-oxo-7,8-dihydropteridin-5(6H)-yl]-2-methoxybenzonitrile]	≤ 100
COc1ccc(N2C(=O)[C@@H](C)N(C3CCCCC3)c3nc(Nc4ccc5[nH]ncc5c4)ncc32)cn1 [Example 48, (7R)-8-cyclohexyl-2-(1H-indazol-5-ylamino)-5-(6-methoxypyridin-3-yl)-7-methyl-7,8-dihydropteridin-6(5H)-one]	≤ 100
CC(C)CCN1c2nc(Nc3ccc4[nH]ncc4c3)ncc2N(c2ccccc2)C(=O)[C@H]1C [Example 16, (7R)-2-(1H-indazol-5-ylamino)-7-methyl-8-(3-methylbutyl)-5-phenyl-7,8-dihydropteridin-6(5H)-one]	≤ 100
CC[C@@H]1C(=O)N(c2cccc(C#N)c2)c2cnc(Nc3ccc4[nH]ncc4c3)nc2N1C1CCCC1 [compound 140, 3-[(7R)-8-cyclopentyl-7-ethyl-2-(1H-indazol-5-ylamino)-6-oxo-7,8-dihydropteridin-5(6H)-yl]benzonitrile]	≤ 100
CC(C)Oc1ccc(N2C(=O)[C@@H](C)N([C@H]3CC[C@H](C)CC3)c3nc(Nc4cnc5[nH]ncc5c4)ncc32)cc1C#N [compound 248, 5-[(7R)-7-methyl-8-(trans-4-methylcyclohexyl)-6-oxo-2-(1H-pyrazolo[3,4-b]pyridin-5-ylamino)-7,8-dihydropteridin-5(6H)-yl]-2-(propan-2-yloxy)benzonitrile]	≤ 100
C[C@@H]1C(=O)N(c2cccc(C(=O)N(C)C)c2)c2cnc(Nc3ccc4[nH]ncc4c3)nc2N1C1CCCCC1 [Example 32, 3-[(7R)-8-cyclohexyl-2-(1H-indazol-5-ylamino)-7-methyl-6-oxo-7,8-dihydropteridin-5(6H)-yl]-N,N-dimethylbenzamide]	≤ 100
COC(=O)c1cccc(Nc2ncc3c(n2)N(CCC(C)C)C(C)C(=O)N3c2ccccc2)c1 (centres unmarked) [Example 10, methyl 3-{[7-methyl-8-(3-methylbutyl)-6-oxo-5-phenyl-5,6,7,8-tetrahydropteridin-2-yl]amino}benzoate]	> 1000
C[C@@H]1C(=O)N(c2ccccc2)c2cnc(Nc3ccc4[nH]ncc4c3)nc2N1CCCO [Example 77, (7R)-8-(3-hydroxypropyl)-2-(1H-indazol-5-ylamino)-7-methyl-5-phenyl-7,8-dihydropteridin-6(5H)-one]	100 to 1000
C[C@@H]1C(=O)N(c2ccc(N3CCN(C)CC3)c(C#N)c2)c2cnc(Nc3cnc4[nH]ncc4c3)nc2N1[C@H]1CC[C@H](C)CC1 [compound 252, 5-[(7R)-7-methyl-8-(trans-4-methylcyclohexyl)-6-oxo-2-(1H-pyrazolo[3,4-b]pyridin-5-ylamino)-7,8-dihydropteridin-5(6H)-yl]-2-(4-methylpiperazin-1-yl)benzonitrile]	≤ 100
C[C@@H]1C(=O)N(c2cccc(C#N)c2)c2cnc(Nc3cc(F)c4[nH]ncc4c3)nc2N1c1ccc(F)cc1 [compound 180]	≤ 100
COc1ccc(N2C(=O)[C@@H](C)N(C3CCCCC3)c3nc(Nc4ccc(C(=O)O)cc4)ncc32)cc1OC [compound 148, 4-{[(7R)-8-cyclohexyl-5-(3,4-dimethoxyphenyl)-7-methyl-6-oxo-5,6,7,8-tetrahydropteridin-2-yl]amino}benzoic acid]	≤ 100
C[C@@H]1C(=O)N(c2ccc[n+]([O-])c2)c2cnc(Nc3cc(F)c4[nH]ncc4c3)nc2N1C1CCC(C)(C)CC1 [compound 304, (7R)-8-(4,4-dimethylcyclohexyl)-2-[(7-fluoro-1H-indazol-5-yl)amino]-7-methyl-5-(1-oxidopyridin-3-yl)-7,8-dihydropteridin-6(5H)-one]	≤ 100
COc1ccc(N2C(=O)[C@@H](C)N(C3CCCCC3)c3nc(Nc4cc(F)c5[nH]ncc5c4)ncc32)cn1 [compound 138, (7R)-8-cyclohexyl-2-[(7-fluoro-1H-indazol-5-yl)amino]-5-(6-methoxypyridin-3-yl)-7-methyl-7,8-dihydropteridin-6(5H)-one]	≤ 100
C[C@@H]1C(=O)N(c2cccnc2)c2cnc(Nc3ccc4[nH]c(=O)oc4c3)nc2N1C1CCCCC1 [compound 151, (7R)-8-cyclohexyl-7-methyl-2-[(2-oxo-2,3-dihydro-1,3-benzoxazol-6-yl)amino]-5-(pyridin-3-yl)-7,8-dihydropteridin-6(5H)-one]	≤ 100
C[C@@H]1C(=O)N(c2cccc(C#N)c2)c2cnc(Nc3ccc4[nH]c(=O)sc4c3)nc2N1C1CCC(F)(F)CC1 [compound 267, 3-[(7R)-8-(4,4-difluorocyclohexyl)-7-methyl-6-oxo-2-[(2-oxo-2,3-dihydro-1,3-benzothiazol-6-yl)amino]-7,8-dihydropteridin-5(6H)-yl]benzonitrile]	≤ 100
CNS(=O)(=O)c1cccc(N2C(=O)[C@@H](C)N(C3CCCCC3)c3nc(Nc4ccc5[nH]ncc5c4)ncc32)c1 [Example 42, 3-[(7R)-8-cyclohexyl-2-(1H-indazol-5-ylamino)-7-methyl-6-oxo-7,8-dihydropteridin-5(6H)-yl]-N-methylbenzenesulfonamide]	≤ 100
CC(C)N1c2nc(Nc3ccc4[nH]ncc4c3)ncc2N(c2ccccc2)C(=O)C1C (centres unmarked) [Example 13, 2-(1H-indazol-5-ylamino)-7-methyl-5-phenyl-8-(propan-2-yl)-7,8-dihydropteridin-6(5H)-one]	100 to 1000
C[C@@H]1C(=O)N(c2ccccc2)c2cnc(Nc3ccc4[nH]ncc4c3)nc2N1CC1CCCC1 [Example 75, (7R)-8-(cyclopentylmethyl)-2-(1H-indazol-5-ylamino)-7-methyl-5-phenyl-7,8-dihydropteridin-6(5H)-one]	≤ 100
CC[C@@H]1C(=O)N(c2ccc(OC)c(OC)c2)c2cnc(Nc3cc(F)c4[nH]ncc4c3)nc2N1C1CCCCC1 [compound 289, (7R)-8-cyclohexyl-5-(3,4-dimethoxyphenyl)-7-ethyl-2-[(7-fluoro-1H-indazol-5-yl)amino]-7,8-dihydropteridin-6(5H)-one]	≤ 100
